Assay results from patent US20100204277A1, “Compositions and Methods for Controlling Infestation” (HATCHTECH PTY LTD., priority 2007, published 2010).
Like-named read-outs stand apart in the source and are kept apart here. Non-standard residues stand in square brackets, D forms with d. Residues, ends and D or L forms follow the SMILES beside them. *: point of attachment. Sta = CC(C)C[C@H](N)[C@@H](O)CC(=O)O; Isovaleryl = CC(C)CC(=O)*

How the values were obtained:
H. contortus eggs = experiment: Haemonchus contortus egg hatch; assay type: in vivo
Protocol: In an attempt to improve control of H. contortus the effects of the compound 5,5′-dimethyl-2,2′-dipyridyl was examined on H. contortus eggs. Eggs were recovered from the faeces of infected sheep using a standard sucrose floatation method. The eggs were corrected to a density of approximately 2,500 eggs per mL and were then exposed to varying concentrations of compound and incubated for 48 hours at 25° C. The eggs were then examined to determine the ovicidal efficacy of the compound in comparison to untreated control and a solvent only control.
In addition, the ovicidal efficacy of the compound 2-acetyl-1-tetralone was examined against H. contortus (FIG. 10). The same protocol was used as described for 5,5′-dimethyl-2,2′-dipyridyl.

[1] = system: Helicoverpa armigera eggs; experiment: Helicoverpa egg hatch; settings: for ovicidal efficacy against H. armigera eggs (FIG. 6): 1% diethoxyglycol in water; for % Inhibition of egg hatch relative to control: Example 16, exposed 2-10 seconds, day 6 post laying
Protocol: A range of concentrations were made up in water and the eggs placed in the solutions for approximately 2-10 seconds. The eggs which had been laid on cloth were then blotted dry and placed in an incubator at 26° C. for 3-4 days until hatch. Hatch rates were then assessed compared to a water only treated control (FIG. 5).
The compound was dissolved in 100% diethoxyglycol and diluted to a final concentration of 1% in water.
Several hundred Helicoverpa armigera eggs (Tatura×Toowoomba strains) were collected, that had been laid on fine mesh cloth over a 24 hour period.
Batches of Helicoverpa eggs were exposed to a specific inhibitor solution for between 2-10 seconds the excess solution drained by blotting with dry tissue paper. The egg masses were then placed in a humid box at 25 degrees until egg hatch. Control eggs were exposed to absolute methanol as described above. At day 6 post laying the eggs were assessed from the different treatments and the percentage of egg hatch determined relative to the control as shown in Table 12.
Batches of Helicoverpa eggs were then exposed to a specific inhibitor solution for between 2-10 seconds the excess solution drained by blotting with dry tissue paper. The egg masses were then placed in a humid box at 25° C. until egg hatch. Control eggs were exposed to absolute methanol as described above. At day 6 post laying the eggs were assessed from the different treatments and the percentage of egg hatch determined relative to the control as shown in Table 13.

[2] = system: Plutella xylostella eggs (Waite strain); experiment: Plutella xylostella egg hatch (egg dip); settings: for ovicidal efficacy against Plutella eggs (FIG. 7): 1% diethoxyglycol; for % Inhibition of egg hatch relative to control: Example 12, dip 2-10 seconds, day 6 post laying; for egg hatching of Plutella eggs (Tables 10 and 11): cloth or parafilm
Protocol: Several hundred Plutella xylostella eggs (Waite strain) were collected, that had been laid over a 24 hour period.
The egg masses were then placed in a humid box at 25° C. until egg hatch. Control eggs were exposed to absolute methanol as described above. At day 6 post laying the eggs were assessed from the different treatments and the percentage of egg hatch determined relative to the control as shown in Table 9.
Batches of Plutella eggs that were laid on either fine cloth or parafilm were dipped in a specific inhibitor solution for between 2-10 seconds, the excess solution was drained by blotting with dry tissue paper. The egg masses were then placed in a humid box at 25 degrees until egg hatch. Control eggs were exposed to absolute methanol as described above or not treated. At day 6 post laying the eggs were assessed from the different treatments and the percentage of egg hatch determined relative to the controls as shown in Tables 10 and 11.
The egg masses were then placed in a humid box at 25 degrees until egg hatch. Control eggs were exposed to absolute ethanol as described above. On day 6 post laying the eggs were assessed from the different treatments and the percentage of egg hatch determined relative to the control.

[3] = system: Lice (L) / Plutella (P) eggs; assay type: in vivo; settings: Lice/Plutella: P
Protocol: Log LD50 is obtained from the observed percentage ovicidal activity by conversion using a modified logit transformation. The observed percentage ovicidal activity values were transformed using the equation:
The additional 5% was used to allow a number to be calculated when 0% and 100% activity was observed. The BA is a crude correction to the log of the concentration at which the compounds were tested. Correlation between BA values and LD50 allows the calculation of Log LD50. […] A number of metal chelating agents with potential for inhibiting the remodelling events associated with thin membrane egg hatching in lice were analysed by comparing their percentage ovicidal activity in lice at different concentrations, their logit calculated pLD50, Pref pLD50, Activity class, clogP and molar refractivity were determined.

Plutella xylostella eggs = experiment: Glass house ovicidal test, Plutella eggs on cabbage plants; assay type: in vivo; settings: 10 eggs per plant
From the text: A number of treatments and replicates were set up in the glass house using young cabbage plants that were at the 4-5 leaf stage. Plutella xylostella eggs were laid by gravid females on the leaves such that each plant contained 10 eggs. The plants were sprayed with a commercial ovicide or using the compounds 5,5′-dimethyl-2,2′-dipyridyl and 5,5′ diethyl-2,2′-dipyridyl in a formulation at the rate of 200 L/Ha using a track sprayer. Controls of water only or Placebo only were also included. The ovicidal efficacy was monitored over a number of days an the number of eggs hatching and caterpillar larvae emerging recorded (Table 22).

[4] = system: Plutella xylostella eggs (Waite strain); experiment: Reversal of ovicidal effect by added metal ions (FeSO4), Plutella eggs; assay type: in vivo
Protocol: (§1) Within 24 hours of collection the following experimental design was chosen. Batches of eggs were exposed to 10 mM 6,6′-dimethyl-2,2′-dipyridyl for 2 seconds while additional batches of eggs were exposed to the solvent only (Methanol) for 2 seconds. All batches of eggs were allowed to air dry for 20 minutes at room temperature. The eggs were then given a 2 second exposure to FeSO4 at either 10, 5 or 1 mM, air dried and put in the incubator at 24° C. and allowed to hatch over the next 6 days. In addition, a positive control of 10 mM 6,6′-dimethyl-2,2′-dipyridyl was set up in which eggs were exposed to this compound for 2 seconds, air dried and placed in the incubator.
as §1, with “10 mM 5,5′-dimethyl-2,2′-dipyridyl for 2” for “10 mM 6,6′-dimethyl-2,2′-dipyridyl for 2”, “FeSO4 at 10, 5” for “FeSO4 at either 10, 5”, “put in an incubator at” for “put in the incubator at”, “of 10 mM, 5,5′-dimethyl-2,2′-dipyridyl was set” for “of 10 mM 6,6′-dimethyl-2,2′-dipyridyl was set”

[5] = system: proteases in louse egg shell washings (ESW); experiment: Gelatine substrate SDS-PAGE of louse egg shell washings incubated with protease inhibitors; assay type: biochemical, Pediculus humanus humanus; settings: gelatine SDS-PAGE strips; EDTA 10 mM, 1,10-phenanthroline 10 mM, PMSF 5 mM, E-64 10 μM, Pepstatin 5 μM; 3 hrs at 37° C.
Protocol: Within 12 hours of hatching 50 body lice eggs (Pediculus humanus humanus) were removed from the hair and placed in a 1 mL eppendorf tube. 20 μL of distilled water was added to the unhatched eggs and the preparation incubated for 30 minutes at 32° C. The 20 μL was recovered, freeze dried and stored at −70° C. This sample was referred to as sample 1. A number of other samples were also collected as described. Sample 2 was collected by removing the unhatched louse eggs from four hairs that were approximately 3 cm long, cutting the hair into 0.5 cm lengths, and placing them into a microfuge tube containing 20 μl of distilled water and incubating at 32° C. for 30 minutes. Sample 3 was collected as for sample 2, but the hair was placed in a tube containing 10 mL of 1% sodium hypochlorite for 1 minute followed by five 1 minute washes in 25 mL of distilled water to remove the sodium hypochlorite before being incubated in a microfuge tube containing 20 μl of distilled water and incubated as for Sample 2. Sample 4 was collected from unhatched eggs which were removed from the hair and washed with 1% sodium hypochlorite and incubated in 20 μl of distilled water in the same manner as the hair in Sample 3. Finally, Sample 5 was collected from eggs that were within 24 hrs of hatching which were washed with 1% sodium hypochlorite, then returned to the incubator at 32° C. until they hatched, the empty egg shells collected 0-2 hrs after egg-hatching, placed in a 1 mL microfuge tube containing 20 μl of distilled water and incubated as for Samples 1-4. For all samples 1-5 the 20 μl of fluid was recovered, freeze-dried and stored at −70° C. The washings recovered from these freshly hatched egg shells are referred to as egg-shell-washings (ESWs). In order to look for the presence of proteases present in these different samples, the freeze-dried samples were resuspended in 15 μL of non-reducing SDS sample buffer, centrifuged at 10,000 g for 2 minutes and the entire 15 μL loaded on to 10% gelatine substrate SDS-PAGE gels. Gels were run at 4° C. for 10 minutes at 10 mA followed by a further 25 minutes at 15 mA per gel. They were then incubated for 2×20 minutes in a 2.5% Triton-X 100 solution followed by a three hour incubation in 0.1M Tris/HCl containing 1 mM CaCl2 pH 8.0. Activity was detected as clear areas on the gel the result of protease activity degrading the gelatine within the gel.
Protease activity in the ESWs from louse eggs was also examined using two-dimensional gel electrophoresis. It was necessary to collect large numbers of freshly hatched egg shells. Following egglaying onto pieces of cloth, adult female lice were removed and the cloth with the eggs washed with 1% sodium hypochlorite as for collection of ESWs. The eggs were then returned to the incubator and permitted to hatch. Typically 100 to 500 hatched egg shells were collected (0-2 hours post hatching), placed in a microfuge tube containing 200 μl of distilled water, incubated and sample treated as described above. For analysis, ESWs were resuspended in rehydration buffer (8 M Urea, 2% 3-[(3-cholamidopropyl) dimethylammonio]-1-propanesulfonate 2% Immobilised pH gradient buffer 3-10 (Amersham Phamacia Biotech, Uppsala, Sweden)) and used to rehydrate 7 cm Immobiline Dry strips pH 3-10 (Amersham Bioscience) overnight. Strips were transferred to the Multiphor II (Pharmacia, Sweden) apparatus, electrophoresed in the first dimension at 200 V for 1 min, increasing to 3,500 V over the next 90 min followed by 65 min at 3,500 V, equilibrated (6 M urea, 30% glycerol, 50 mM Tris pH 8.8 and 2% SDS) and then run on a 10% SDS-PAGE gel containing 0.1% gelatin for the second dimension. The gel was then run and developed as previously described.
10% SDS-PAGE gelatine substrate gels were loaded with freeze dried egg shell washings from 100 lice eggs that had been resuspended in 50 μL of non-reducing sample buffer with samples run at 10 μL per lane. […]

[6] = 10 mM (200 L/Ha), with wetting agent 0.3 ml/L
[7] = 20 mM (200 L/Ha), with wetting agent 0.3 ml/L

Question: Which “inhibition of H. contortus egg hatch (FIG. 10)” value (H. contortus eggs; 22 ug/mL (0.1 mM)) does the source give for `CC(=O)C1CCc2ccccc2C1=O` (stereo not shown) [2-acetyl-1-tetralone] here?
Answer: Its value is “Partial inhibition”.

Question: And the “inhibition of H. contortus egg hatch (FIG. 10)” value (H. contortus eggs; 220 ug/mL (1 mM) and 110 ug/mL (0.5 mM))?
Answer: The value was “highly effective”.

Question: And the “ovicidal efficacy against H. armigera eggs (FIG. 6)” value ([1]; 1 mM)?
Answer: The value was “efficacy declining”.

Question: And the “ovicidal efficacy against H. armigera eggs (FIG. 6)” value ([1]; 2 mM)?
Answer: Its value is “strong ovicidal efficacy”.

Question: And the “ovicidal efficacy against Plutella eggs (FIG. 7)” value ([2]; 0.5 mM)?
Answer: Its value is “no inhibition”.

Question: What about the “ovicidal efficacy against Plutella eggs (FIG. 7)” value ([2]; 2 and 1 mM) of the same compound?
Answer: Its value is “strong ovicidal efficacy”.

Question: And the “Activity class 0 = inactive 1 = low 2 = med 3 = high” value ([3]; 1 mM)?
Answer: The value was 3 (a pLD50 greater than 4 is considered strongly active (Class 3)).

Question: What about the “Activity class 0 = inactive 1 = low 2 = med 3 = high” value ([3]; 10 mM) of the same compound?
Answer: The value was 1 (a pLD50 value between 2 and 3 is considered weakly active (Class 1)).

Question: Which “# LARVAE EMERGED 0-24 h” value (Plutella xylostella eggs; 10 mM (200 L/Ha), No Wetting Agent) does the source give for `CCc1ccc(-c2ccc(CC)cn2)nc1` [5,5′diethyl-2,2′-dipyridyl] here?
Answer: The value was 0.

Question: What about the “# LARVAE EMERGED 0-24 h” value (Plutella xylostella eggs; [6]) of the same compound?
Answer: Its value is 0.

Question: `Cc1ccc(-c2ccc(C)cn2)nc1` [5,5′dimethyl-2,2′-dipyridyl] was tested. Which “# LARVAE EMERGED 0-24 h” value (Plutella xylostella eggs; [6]) did it give?
Answer: Its value is 0.

Question: What about the “# LARVAE EMERGED 24-48 h” value (Plutella xylostella eggs; [6]) of the same compound?
Answer: Its value is 0.

Question: What about the “# LARVAE EMERGED 0-24 h” value (Plutella xylostella eggs; [7]) of the same compound?
Answer: Its value is 0.

Question: What about the “# LARVAE EMERGED 24-48 h” value (Plutella xylostella eggs; [7]) of the same compound?
Answer: Its value is 0.

Question: And the “# LARVAE EMERGED 48-72 h” value (Plutella xylostella eggs; 20 mM (200 L/Ha), with wetting agent 0.3 ml/L, 48-72 h)?
Answer: The value was 0.

Question: `Cc1cccc(-c2cccc(C)n2)n1` [6,6′-dimethyl-2,2′-dipyridyl] was tested. Which “% Inhibition of egg hatch relative to control” value ([1]; 0.001 mM) did it give?
Answer: Its value is “No inhibition”.

Question: And the “% Inhibition of egg hatch relative to control” value ([1]; 0.01 mM)?
Answer: Its value is “No inhibition”.

Question: And the “% Inhibition of egg hatch relative to control” value ([1]; 0.1 mM)?
Answer: Its value is “No inhibition”.

Question: What about the “% Inhibition of egg hatch relative to control” value ([1]; 1 mM) of the same compound?
Answer: The value was “significantly inhibit”.

Question: And the “% Inhibition of egg hatch relative to control” value ([1]; 10 mM)?
Answer: The value was “significantly inhibit”.

Question: What about the “% Inhibition relative to the FeSO4 controls” value ([4]; 10 mM compound followed by 2 second exposure to 1 mM FeSO4) of the same compound?
Answer: The value was 3%.

Question: And the “% Inhibition relative to the FeSO4 controls” value ([4]; 10 mM compound followed by 2 second exposure to 5 mM FeSO4)?
Answer: Its value is 0%.

Question: And the “% Inhibition relative to the FeSO4 controls” value ([4]; 10 mM compound followed by 2 second exposure to 10 mM FeSO4)?
Answer: Its value is 38%.

Question: And the “% Inhibition of egg hatch relative to control” value ([2]; 1 mM)?
Answer: Its value is “strong ovicidal effects”.

Question: And the “% Inhibition of egg hatch relative to control” value ([2]; 10 mM)?
Answer: The value was “strong ovicidal effects”.

Question: And the “egg hatching of Plutella eggs (Tables 10 and 11)” value ([2]; 0.1 and 0.01 mM)?
Answer: The value was “no observable effects”.

Question: What about the “egg hatching of Plutella eggs (Tables 10 and 11)” value ([2]; 10 and 1 mM) of the same compound?
Answer: Its value is “effective at inhibiting egg hatching”.

Question: With `CC(C)C[C@H](NC(=O)[C@H]1O[C@@H]1C(=O)O)C(=O)NCCCCN=C(N)N` [E-64] as the compound, how does the “protease activity of egg shell washings compared to untreated controls” value [5] read?
Answer: Its value is “no apparent reduction in protease activity”.

Question: With `O=C(O)CN(CCN(CC(=O)O)CC(=O)O)CC(=O)O` [EDTA, ethylenediamine tetraacetic acid] as the compound, how does the “protease activity of egg shell washings compared to untreated controls” value [5] read?
Answer: The value was “reduction in protease activity”.

Question: How did the “protease activity of egg shell washings compared to untreated controls” value [5] turn out when `O=S(=O)(F)Cc1ccccc1` [PMSF] was run?
Answer: The value was “no apparent reduction in protease activity”.

Question: With `CC(C)CC(=O)N[C@H](C(=O)N[C@H](C(=O)N[C@@H](CC(C)C)[C@@H](O)CC(=O)N[C@@H](C)C(=O)N[C@@H](CC(C)C)[C@@H](O)CC(=O)O)C(C)C)C(C)C` [pepstatin] (Isovaleryl-VV[Sta]A[Sta]-OH) as the compound, how does the “protease activity of egg shell washings compared to untreated controls” value [5] read?
Answer: The value was “no apparent reduction in protease activity”.
